# Columns and labels:
# CD47/SIRPα interaction = biological target: T1, CD47/SIRPα interaction (Homo sapiens, UniProt P78324); assay: Blocking assay by flow cytometry, preliminary screening at a single concentration, CD47/SIRPα; type: binding; settings: preliminary test, single concentration of 100 μM
# T1 construct: purchased ACRO Biosystem SIA-H5251; host or cells: CHOK1-CD47 cells (lenti-viral transfection)
# Protocol: (§1) The abilities of small molecule inhibitors (SMIs) (purchased from TargetMol, Shanghai, China) to block the binding of SIRPα protein to CHOK1-CD47 cells or PVR protein to CHOK1-TIGIT cells were determined by flow cytometry, as previously reported. The SMIs at indicated concentrations were incubated with Fc-tagged SIRPα or PVR protein for 30 min at 4°C, followed by incubating with the indicated cells for another 30 min. Human SIRPα protein (SIA-H5251, ACRO Biosystem, Beijing, China), mouse SIRPα protein (SIA-M5258, ACRO Biosystem, Beijing, China), human PVR protein (CD5-H82F6, ACRO Biosystem, Beijing, China), and mouse PVR protein (50259-M03H, Sino Biological, Beijing, China) were used. PE-conjugated anti-human IgG antibody was used to detect the Fc protein bind to cells. Cells incubated with the Fc proteins and anti-human IgG antibody without the SMIs serve as the positive control. The mean fluorescent intensity (MFI) of each sample was detected and recorded by a flow cytometry. The blocking efficacy of the SMIs was calculated as the equation: (MFI of the positive control-MFI of the SMI)/MFI of the positive control × 100%.
# (§2) The small molecule inhibitor could not only bind to the target; most importantly, it should interfere with the receptor–ligand interactions. Subsequently, the candidate inhibitors were screened by the blocking assays with the established CD47 and TIGIT over-expressing cell lines. The test was initialed with a preliminary screening of the candidates with a single concentration (Figure 2D). Generally, the SMI blocking efficacy to the CD47/SIRPα interaction was much higher than that of the TIGIT/PVR. […] Therefore, the SMI-F11 and SMI-F17 may exert dual blocking effects in the CD47/SIRPα and TIGIT/PVR pathways. Blocking assays with a concentration gradient of the SMI were further performed to validate the preliminary screening. […] The similar blocking assays with the mouse CD47 and TIGIT over-expressing cells were also performed. […] Considering that most pairs of the immune checkpoints interact with the corresponding ligand in parallel forms, the blocking assays with the PD-1/PD-L1 interaction system was also conducted to test the specificity.
# TIGIT/PVR interaction = biological target: T2, TIGIT/PVR interaction (Homo sapiens, UniProt P15151); assay: Blocking assay by flow cytometry, preliminary screening at a single concentration, TIGIT/PVR; type: binding; settings: preliminary test, single concentration of 100 μM
# T2 construct: purchased ACRO Biosystem CD5-H82F6; host or cells: CHOK1-TIGIT cells (lenti-viral transfection)
# T2 sequence (P15151 21-343 limits assumed): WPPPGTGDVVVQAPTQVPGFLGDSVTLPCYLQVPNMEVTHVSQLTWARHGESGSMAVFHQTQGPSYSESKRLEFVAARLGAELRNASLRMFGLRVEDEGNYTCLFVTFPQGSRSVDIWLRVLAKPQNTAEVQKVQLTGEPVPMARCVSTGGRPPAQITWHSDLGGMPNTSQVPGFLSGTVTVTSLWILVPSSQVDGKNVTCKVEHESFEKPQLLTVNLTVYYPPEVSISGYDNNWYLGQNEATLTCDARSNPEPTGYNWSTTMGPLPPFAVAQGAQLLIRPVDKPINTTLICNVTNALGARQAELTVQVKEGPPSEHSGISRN
# Protocol: as §1, §2
# human CD47/SIRPα = biological target: T3, human CD47/SIRPα (Homo sapiens, UniProt P78324); assay: Blocking assay, human SIRPα protein binding to CHOK1-hCD47 cells; settings: concentration gradient
# T3 construct: purchased ACRO Biosystem SIA-H5251; host or cells: soluble protein purchased; CD47 on CHOK1-hCD47 cells (lenti-viral transfection)
# T3 sequence (P78324 31-370 limits assumed): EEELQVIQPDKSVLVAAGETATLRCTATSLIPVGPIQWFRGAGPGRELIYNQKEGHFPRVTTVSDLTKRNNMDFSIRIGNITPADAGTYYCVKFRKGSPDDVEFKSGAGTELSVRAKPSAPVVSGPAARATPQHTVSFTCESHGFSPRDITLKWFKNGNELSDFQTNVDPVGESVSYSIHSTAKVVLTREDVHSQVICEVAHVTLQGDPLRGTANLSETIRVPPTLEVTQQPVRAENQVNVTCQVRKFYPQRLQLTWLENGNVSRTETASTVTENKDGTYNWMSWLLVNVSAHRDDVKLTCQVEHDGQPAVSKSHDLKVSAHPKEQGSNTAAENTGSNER
# Protocol: as §1
# human TIGIT/PVR = biological target: T4, human TIGIT/PVR (Homo sapiens, UniProt P15151); assay: Blocking assay, human PVR protein binding to CHOK1-hTIGIT cells; settings: concentration gradient
# T4 construct: purchased ACRO Biosystem CD5-H82F6; host or cells: soluble protein purchased; TIGIT on CHOK1-hTIGIT cells (lenti-viral transfection)
# Protocol: as §1
# T1 sequence (P78324 31-370 limits assumed): as above
SMILES,"blocking efficacy, CD47/SIRPα interaction (CD47/SIRPα interaction)",activity in interfering with the TIGIT/PVR interaction (TIGIT/PVR interaction),"concentration-dependent blocking effect, CD47/SIRPα (human CD47/SIRPα)","concentration-dependent blocking effect, TIGIT/PVR (human TIGIT/PVR)"
"Cc1cc(O)c(C(=O)N[C@@H](C(=O)N[C@@H]2C(=O)N3C(C(=O)O)=C(CSc4nnnn4C)CS[C@H]23)c2ccc(O)cc2)cn1 [SMI-F12, Cefpiramide acid]",more than 50%,,,
"CCCSc1ccc2nc(NC(=O)OC)[nH]c2c1 [SMI-F16, Albendazole]",,better activities,,
"O=C1[C@H](CC[C@H](O)c2ccc(F)cc2)[C@@H](c2ccc(O)cc2)N1c1ccc(F)cc1 [SMI-F17, Ezetimibe]",more than 50%,better activities,could not exert blocking effects in a concentration-dependent manner,could not exert blocking effects in a concentration-dependent manner
"Nc1cccc2c1CN(C1CCC(=O)NC1=O)C2=O (centres unmarked) [SMI-F19, Lenalidomide]",more than 50%,,,
"COc1cccc(N(C)C(=S)Oc2ccc3c(c2)CCCC3)n1 [SMI-F20, Liranaftate]",,better activities,,

# — paper PMC8150775, “Repositioning Azelnidipine as a Dual Inhibitor Targeting CD47/SIRPα and TIGIT/PVR Pathways for Cancer Immuno-Therapy” (Biomolecules, 2021)
